Experimental data: PubChem BioAssay (NCI)
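All cell lines were grown in 96-well plates and treated with compound for 48 hours. GI50: concentration for 50% inhibition of growth. Definition used: TGI = concentration required for complete inhibition of growth.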

test system: ACHN renal; assay: growth of human tumour cells (NCI), 48 h

SMILES	TGI	GI50
COc1cc2c(cc1OCCCOc1cc3c(cc1OC)C(=O)N1CCC[C@H]1CN3)N=C[C@@H]1CCCN1C2=O	0.359 µM	
OC(c1ccco1)C(F)(F)c1nc2ccccc2o1 (configuration not stated)	> 100 µM	
CCOC(=O)C(NC(=O)c1ccc(N=NN(C)C)cc1)C(C)C (configuration not stated)	> 100 µM	
Cc1cc2c(cc1Cl)SC(NNc1cnc3ccccc3n1)=NS2(=O)=O	> 100 µM	
O=C1c2c(c3c4ccc(Br)cc4oc3c3[nH]c4ccccc4c23)C(=O)N1O	> 100 µM	1.11 µM
CCOC(=O)c1c(NC(=S)Nc2ccc(C)cc2)sc2c1CCN(C)C2	> 100 µM	
c1ccc([P+](Cc2csnn2)(c2ccccc2)c2ccccc2)cc1	> 100 µM	
c1ccc(-c2ccc(N=NN3CCCC3)cc2)cc1	> 100 µM	
NC(=S)N=Nc1c(O)cc(Nc2ccc(Cl)cc2Cl)c2ccccc12	27.5 µM	
CCC1(CC)C(=O)NC(=S)N=C1N	> 100 µM	
O=c1oc2ccccc2c2nc3ccccc3cc12	> 100 µM	
O=C(NN1C(=O)CSC1c1ccc(Cl)c(Cl)c1)c1ccncc1 (configuration not stated)	> 100 µM	
CCNC(=S)N/N=C/c1ccccn1	70.7 µM	
O=C1NN=C(c2c[nH]c3ccccc23)CC1NCc1ccccc1 (configuration not stated)	> 100 µM	
O=c1c2cc3c(=O)n(CCc4ccccc4CO)c(=O)c3cc2c(=O)n1CCc1ccccc1CO	> 100 µM	
CCOC(=O)c1[nH]c2nc(SC)nc(NC)c2c1N	> 100 µM	
CC1=CCC[C@H]2[C@](C)(CC3=CC(=O)C4SCCSC4C3=O)[C@@H](C)CC[C@]12C (some centres not stated)	46.1 µM	
C/C(=N\Nc1nc2ccccc2s1)c1cccnn1	17 µM	
FC(F)=C(c1ccc(-c2ccc(Cl)cc2)cc1)C(F)(F)F	31.1 µM	
COC(=O)[C@H]1C=C[C@H](OC2OC(COC(C)=O)C(OC(C)=O)C(OC(C)=O)C2OC(C)=O)n2c(=O)n(-c3ccccc3)c(=O)n21 (some centres not stated)	3.08 µM	

test system: SW-620 colon; assay: growth of human tumour cells (NCI), 48 h

SMILES	TGI	GI50
COc1cc2c(cc1OCCCOc1cc3c(cc1OC)C(=O)N1CCC[C@H]1CN3)N=C[C@@H]1CCCN1C2=O	> 32.4 µM	
OC(c1ccco1)C(F)(F)c1nc2ccccc2o1 (configuration not stated)	> 100 µM	
CCOC(=O)C(NC(=O)c1ccc(N=NN(C)C)cc1)C(C)C (configuration not stated)	> 100 µM	
Cc1cc2c(cc1Cl)SC(NNc1cnc3ccccc3n1)=NS2(=O)=O	> 100 µM	
O=C1c2c(c3c4ccc(Br)cc4oc3c3[nH]c4ccccc4c23)C(=O)N1O	> 100 µM	1.38 µM
c1ccc([P+](Cc2csnn2)(c2ccccc2)c2ccccc2)cc1	> 100 µM	
c1ccc(-c2ccc(N=NN3CCCC3)cc2)cc1	> 100 µM	
NC(=S)N=Nc1c(O)cc(Nc2ccc(Cl)cc2Cl)c2ccccc12	> 100 µM	
CCC1(CC)C(=O)NC(=S)N=C1N	> 100 µM	
O=c1oc2ccccc2c2nc3ccccc3cc12	> 100 µM	
O=C(NN1C(=O)CSC1c1ccc(Cl)c(Cl)c1)c1ccncc1 (configuration not stated)	> 100 µM	
CCNC(=S)N/N=C/c1ccccn1	> 100 µM	
O=C1NN=C(c2c[nH]c3ccccc23)CC1NCc1ccccc1 (configuration not stated)	> 100 µM	
O=c1c2cc3c(=O)n(CCc4ccccc4CO)c(=O)c3cc2c(=O)n1CCc1ccccc1CO	> 100 µM	
CCOC(=O)c1[nH]c2nc(SC)nc(NC)c2c1N	> 100 µM	
CC1=CCC[C@H]2[C@](C)(CC3=CC(=O)C4SCCSC4C3=O)[C@@H](C)CC[C@]12C (some centres not stated)	65.6 µM	
C/C(=N\Nc1nc2ccccc2s1)c1cccnn1	> 100 µM	
FC(F)=C(c1ccc(-c2ccc(Cl)cc2)cc1)C(F)(F)F	40.3 µM	
COC(=O)[C@H]1C=C[C@H](OC2OC(COC(C)=O)C(OC(C)=O)C(OC(C)=O)C2OC(C)=O)n2c(=O)n(-c3ccccc3)c(=O)n21 (some centres not stated)	5.68 µM	

test system: MALME-3M melanoma; assay: growth of human tumour cells (NCI), 48 h

SMILES	TGI
COc1cc2c(cc1OCCCOc1cc3c(cc1OC)C(=O)N1CCC[C@H]1CN3)N=C[C@@H]1CCCN1C2=O	0.268 µM
CCOC(=O)C(NC(=O)c1ccc(N=NN(C)C)cc1)C(C)C (configuration not stated)	> 100 µM
Cc1cc2c(cc1Cl)SC(NNc1cnc3ccccc3n1)=NS2(=O)=O	> 100 µM
c1ccc([P+](Cc2csnn2)(c2ccccc2)c2ccccc2)cc1	> 100 µM
CCC1(CC)C(=O)NC(=S)N=C1N	> 100 µM
O=c1oc2ccccc2c2nc3ccccc3cc12	> 100 µM
O=C(NN1C(=O)CSC1c1ccc(Cl)c(Cl)c1)c1ccncc1 (configuration not stated)	> 100 µM
CCNC(=S)N/N=C/c1ccccn1	> 100 µM
O=C1NN=C(c2c[nH]c3ccccc23)CC1NCc1ccccc1 (configuration not stated)	> 100 µM
O=c1c2cc3c(=O)n(CCc4ccccc4CO)c(=O)c3cc2c(=O)n1CCc1ccccc1CO	> 100 µM
CCOC(=O)c1[nH]c2nc(SC)nc(NC)c2c1N	> 100 µM
FC(F)=C(c1ccc(-c2ccc(Cl)cc2)cc1)C(F)(F)F	31.3 µM

test system: HCC-2998 colon; assay: growth of human tumour cells (NCI), 48 h

SMILES	GI50	TGI
COc1cc2c(cc1OCCCOc1cc3c(cc1OC)C(=O)N1CCC[C@H]1CN3)N=C[C@@H]1CCCN1C2=O	0.172 µM	0.468 µM
OC(c1ccco1)C(F)(F)c1nc2ccccc2o1 (configuration not stated)		> 100 µM
CCOC(=O)C(NC(=O)c1ccc(N=NN(C)C)cc1)C(C)C (configuration not stated)		> 100 µM
Cc1cc2c(cc1Cl)SC(NNc1cnc3ccccc3n1)=NS2(=O)=O		> 100 µM
O=C1c2c(c3c4ccc(Br)cc4oc3c3[nH]c4ccccc4c23)C(=O)N1O	1.94 µM	> 100 µM
c1ccc([P+](Cc2csnn2)(c2ccccc2)c2ccccc2)cc1		> 100 µM
NC(=S)N=Nc1c(O)cc(Nc2ccc(Cl)cc2Cl)c2ccccc12		> 100 µM
O=c1oc2ccccc2c2nc3ccccc3cc12		> 100 µM
O=C(NN1C(=O)CSC1c1ccc(Cl)c(Cl)c1)c1ccncc1 (configuration not stated)		> 100 µM
CCOC(=O)c1[nH]c2nc(SC)nc(NC)c2c1N		> 100 µM
CC1=CCC[C@H]2[C@](C)(CC3=CC(=O)C4SCCSC4C3=O)[C@@H](C)CC[C@]12C (some centres not stated)		55.8 µM
C/C(=N\Nc1nc2ccccc2s1)c1cccnn1		89.9 µM
COC(=O)[C@H]1C=C[C@H](OC2OC(COC(C)=O)C(OC(C)=O)C(OC(C)=O)C2OC(C)=O)n2c(=O)n(-c3ccccc3)c(=O)n21 (some centres not stated)		4.55 µM

test system: CCRF-CEM leukemia; assay: growth of human tumour cells (NCI), 48 h

SMILES	TGI	GI50
COc1cc2c(cc1OCCCOc1cc3c(cc1OC)C(=O)N1CCC[C@H]1CN3)N=C[C@@H]1CCCN1C2=O	> 100 µM	
OC(c1ccco1)C(F)(F)c1nc2ccccc2o1 (configuration not stated)	> 100 µM	
CCOC(=O)C(NC(=O)c1ccc(N=NN(C)C)cc1)C(C)C (configuration not stated)	> 100 µM	
Cc1cc2c(cc1Cl)SC(NNc1cnc3ccccc3n1)=NS2(=O)=O	> 100 µM	
O=C1c2c(c3c4ccc(Br)cc4oc3c3[nH]c4ccccc4c23)C(=O)N1O	> 100 µM	0.0418 µM
CCOC(=O)c1c(NC(=S)Nc2ccc(C)cc2)sc2c1CCN(C)C2	> 100 µM	
c1ccc([P+](Cc2csnn2)(c2ccccc2)c2ccccc2)cc1	> 100 µM	
c1ccc(-c2ccc(N=NN3CCCC3)cc2)cc1	> 100 µM	
CCC1(CC)C(=O)NC(=S)N=C1N	> 100 µM	
O=c1oc2ccccc2c2nc3ccccc3cc12	> 100 µM	
O=C(NN1C(=O)CSC1c1ccc(Cl)c(Cl)c1)c1ccncc1 (configuration not stated)	> 100 µM	
CCNC(=S)N/N=C/c1ccccn1	> 100 µM	
O=C1NN=C(c2c[nH]c3ccccc23)CC1NCc1ccccc1 (configuration not stated)	> 100 µM	
O=c1c2cc3c(=O)n(CCc4ccccc4CO)c(=O)c3cc2c(=O)n1CCc1ccccc1CO	> 100 µM	
CCOC(=O)c1[nH]c2nc(SC)nc(NC)c2c1N	> 100 µM	
CC1=CCC[C@H]2[C@](C)(CC3=CC(=O)C4SCCSC4C3=O)[C@@H](C)CC[C@]12C (some centres not stated)	48.7 µM	
FC(F)=C(c1ccc(-c2ccc(Cl)cc2)cc1)C(F)(F)F	62.1 µM	
COC(=O)[C@H]1C=C[C@H](OC2OC(COC(C)=O)C(OC(C)=O)C(OC(C)=O)C2OC(C)=O)n2c(=O)n(-c3ccccc3)c(=O)n21 (some centres not stated)	16.3 µM	
